Test results as given in patent US20060257448A1, “Resorbable polymer composition, implant and method of making implant” (The University of Zurich, priority 2005, published 2006).

system: MC3T3-E1 cells; assay: Alkaline phosphatase activity (maturation) of MC3T3-E1 preosteoblastic cells; format: cell-based; conditions: increasing amounts of solvent (triacetin 0 to 6 mM); determined after 6 days; FIG. 2
Protocol: To compare the effect of various plasticizer regarding their osteogenetic effect to that of triacetin, MC3T3-E1 cells were grown in an alpha-modified Minimum Essential Medium (Life Technologies, Inc., Grand Island, N.Y.) containing 10% fetal calf serum (Life Technologies, Inc.), 50 μg/ml gentamycin, and 50 μg/ml ascorbic acid. To examine the action of triacetin on this cell line, 1×10^5 cells per well were plated in 6-well plates and triacetin subsequently added. Medium exchange was performed after 3 days and alkaline phosphatase (ALP) was determined according to Lowry, O. et al. [J. Biol. Chem. 207 (1954) 19-37]: p-nitrophenol liberated was converted to p-nitrophenylate by adding 400 μl of 1 M NaOH, which was quantitated by measuring the absorbance at 410 nm (epsilon=17500/mol×cm). Alkaline phosphatase activity was normalized to total protein and expressed as nmol nitrophenylate generated per min per mg protein.
MC3T3-E1 cells were treated with increasing amounts of different solvents and the effect on the maturation of MC3T3-E1 cells determined after 6 days by alkaline phosphatase activity.

Compound	Maturation of MC3T3-E1 cells determined by alkaline phosphatase activity
CN(C)C=O [N,N-dimethylformamide]	no positive effect
CCO [ethanol]	no positive effect
CO [methanol]	no positive effect
C[S+](C)[O-] [dimethylsulfoxide]	no positive effect
CC(=O)OCC(COC(C)=O)OC(C)=O [triacetin, 1,2,3-Triacetoxypropane]	increases in a concentration dependent manner
